Assays:
[1] = system: Argentine ant, Linepithema humile; assay: Knockdown/mortality of ant workers under continuous exposure on treated glazed tile; conditions: glazed tile
How it was run: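 0.5% AI imidacloprid in acetone, alone or with 0.1, 1.0 or 5.0% additive (benzenepropanoic acid, oleic acid, methyl oleate, methyl linoleate, methyl palmitate or BHA), 1 ml dried overnight on glazed tile (~161 cm^2). Ten workers confined under continuous exposure, water from 3 h; knockdown/mortality scored at intervals and 24 h; ≥3 replicates.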

[2] = system: susceptible/normal German cockroach (Monheim strain), Blattella germanica; assay: Knockdown/mortality of male cockroaches under continuous exposure on treated glazed tile; assay type: in vivo
How it was run: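 Male cockroaches continuously exposed on treated glazed tile, dried overnight before exposure; at least three replicates. Knockdown/mortality scored at intervals from 5 or 10 min, over runs lasting 20 min to 24 h depending on test.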

[3] = system: tropical house mosquito Culex quinquefasciatus (adults, 3 days old); assay: Efficacy of formulations on surfaces (glazed/unglazed tiles, plywood), ten 3 day old mosquitoes, 3 min exposure; assay type: in vivo; conditions: EC formulation, 3 minutes exposure
How it was run: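 Test agents in acetone, 1 ml pipetted onto 15×15 cm glazed tiles (plywood/unglazed tiles also used; 1 cm edge untreated). USDA Petri Dish Method: ten 3-day-old adults held 3 min under a perforated dish, then given a water-soaked cotton pad. Knock-down scored 3 min–4 h, mortality at 24 h; mean of three batches.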

[4] = system: Blattella germanica (males, susceptible); assay: Efficacy of EC formulations on glazed/unglazed tiles, continuous exposure; assay type: in vivo; conditions: EC formulation
Procedure: All surfaces were provided with talcum-coated glass rings (diameter 9.5 cm, height 5.5 cm) one day later.
The test insects were anesthetized with CO2, 20 individuals were placed onto the treated surfaces and the glass ring was covered with wire gauze ring. […]
Each test consisted of at least one replicate and any additional replicates are noted. […]
Test Insects: Culex quinquefasciatus (adults, susceptible) (3 minutes exposure time according to USDA Petri Dish Method), Musca domestica (adults, susceptible and resistant), Blattella germanica (males, susceptible) (both: continuous exposure time)
Formulations: Insecticide with or without 10% Compound A (as EC), to be diluted with water (1 part formulation+9 parts water)
Application: 1 ml of the diluted formulations was applied by pipette onto glazed tiles (15×15 cm)
Evaluation: Knock down after 3, 9 (mosquitoes only), 15, and 30 minutes, 1, 2, 3, 4 and 24 hours (mortality)

[5] = Table 57, Argentine ant, continuous exposure
[6] = Table 61, German cockroach (Monheim), glazed tile, continuous exposure
[7] = 0.02% = 10 mg Ethiprole/m^2 on glazed tiles
[8] = 0.1% = 50 mg Bendiocarb/m^2 on glazed tiles
[9] = Table 46, Trial 1, fipronil/Compound A in acetone
[10] = Table 47, Trial 2, fipronil/Compound A in acetone
[11] = Table 49, fipronil/adjuvant in acetone
[12] = 2 hr, Table 46, Trial 1, fipronil/Compound A in acetone
[13] = 2 hr, Table 49, fipronil/adjuvant in acetone
[14] = 4 hr, Table 46, Trial 1, fipronil/Compound A in acetone
[15] = Table 53, fipronil/adjuvant in acetone, glazed tile, Monheim strain
[16] = Table 4 (Ex. 1), continuous exposure
[17] = Table 7 (Ex. 4), continuous exposure
[18] = Table 8 (Ex. 5), continuous exposure
[19] = Table 10 (Ex. 7), continuous exposure
[20] = Table 12 (Ex. 9), continuous exposure
[21] = Table 14 (Ex. 11), continuous exposure
[22] = Table 16 (Ex. 13), continuous exposure
[23] = Table 19 (Ex. 16), continuous exposure
[24] = Table 20 (Ex. 17), continuous exposure
[25] = 0.1% = 50 mg imidacloprid/m^2 on glazed tiles
[26] = Table 27, aqueous deltamethrin/adjuvant

CC[S+]([O-])c1c(C#N)nn(-c2c(Cl)cc(C(F)(F)F)cc2Cl)c1N (stereo not drawn) [Ethiprole (1%)]
13%: Average % Knockdown & Mortality after 3 hr [2, 6]
0%: Average % Mortality after 30 min [1, 5] | Average % Mortality after 45 min ([1]; Table 57, Argentine ant, continuous exposure, 45 min) | Average % Mortality after 60 min [1, 5] | Average % Mortality after 15 min ([1]; Table 57, Argentine ant, continuous exposure, adjuvant = Compound A 1% + Compound B 0.5%) | Average % Knockdown & Mortality after 1 hr ([2]; Table 61, German cockroach (Monheim), glazed tile, continuous exposure, adjuvant = Compound A 1% + Compound B 0.5%, 1 hr)
73%: Average % Knockdown & Mortality after 24 hr [2, 6]
27%: Average % Knockdown & Mortality after 5 hr [2, 6]

CC[S+]([O-])c1c(C#N)nn(-c2c(Cl)cc(C(F)(F)F)cc2Cl)c1N (stereo not drawn) [ethiprole]
10%: % KD and Mortality 2 h [3, 7] | % KD and Mortality 3 h [3, 7] | % KD and Mortality 4 h [3, 7] | % KD and Mortality 6 h [3, 7]
0%: % KD and Mortality 15′ [3, 7] | % KD and Mortality 30′ [3, 7] | % KD and Mortality 1 h [3, 7] | % KD and Mortality 15′ [4, 7] | % KD and Mortality 30′ [4, 7] | % KD and Mortality 1 h [4, 7]
80%: % KD and Mortality 2 h [4, 7]
5-15%: mortality from 5 to 25 hours ([2]; ethiprole 0.01% in the absence of the adjuvant (FIG. 55))
100%: % KD and Mortality 3 h [4, 7] | % KD and Mortality 4 h [4, 7] | % KD and Mortality 6 h [4, 7] | % KD and Mortality 24 h [4, 7]
60%: % KD and Mortality 24 h [3, 7]

CNC(=O)Oc1cccc2c1OC(C)(C)O2 [bendiocarb]
100%: % KD and Mortality 2 h [3, 8] | % KD and Mortality 3 h [3, 8] | % KD and Mortality 4 h [3, 8] | % KD and Mortality 6 h [3, 8] | % KD and Mortality 24 h [3, 8]
80%: % KD and Mortality 1 h [3, 8] | % KD and Mortality 3 h [4, 8] | % KD and Mortality 4 h [4, 8] | % KD and Mortality 6 h [4, 8] | % KD and Mortality 24 h [4, 8]
0%: % KD and Mortality 15′ [3, 8] | % KD and Mortality 30′ [3, 8] | % KD and Mortality 15′ [4, 8]
60%: % KD and Mortality 1 h [4, 8] | % KD and Mortality 2 h [4, 8]
40%: % KD and Mortality 30′ [4, 8]

N#Cc1nn(-c2c(Cl)cc(C(F)(F)F)cc2Cl)c(N)c1[S+]([O-])C(F)(F)F (stereo not drawn) [Fipronil (.001%)]
100%: Average % Mortality after 24 hr [1, 9] | Average % Mortality after 24 hr [1, 10] | Average % Mortality after 24 hr [1, 11]
3%: Average % Mortality after 3 hr [1, 11]
28%: Average % Mortality after 4 hr ([1]; 4 hr, Table 47, Trial 2, fipronil/Compound A in acetone)
74%: Average % Mortality after 4 hr [1, 14]
0%: Average % Mortality after 5 min [1, 9] | Average % Mortality after 5 min [1, 10] | Average % Mortality after 15 min [1, 9] | Average % Mortality after 15 min [1, 10] | Average % Mortality after 30 min [1, 9] | Average % Mortality after 30 min [1, 10] | Average % Mortality after 30 min [1, 11] | Average % Mortality after 60 min [1, 9] | Average % Mortality after 60 min [1, 10] | Average % Mortality after 60 min [1, 11] | Average % Mortality after 2 hr [1, 12] | Average % Mortality after 2 hr ([1]; 2 hr, Table 47, Trial 2, fipronil/Compound A in acetone) | Average % Mortality after 2 hr [1, 13] | Average % Knockdown & Mortality after 60 min [2, 15] | Average % Knockdown & Mortality after 3 hr [2, 15] | Average % Knockdown & Mortality after 5 hr [2, 15]
40%: Average % Knockdown & Mortality after 24 hr [2, 15]

N#Cc1nn(-c2c(Cl)cc(C(F)(F)F)cc2Cl)c(N)c1[S+]([O-])C(F)(F)F (stereo not drawn) [Fipronil (.01%)]
7%: Average % Knockdown & Mortality after 3 hr [2, 15] | Average % Knockdown & Mortality after 5 hr [2, 15]
0%: Average % Mortality after 5 min [1, 9] | Average % Mortality after 15 min [1, 9] | Average % Mortality after 30 min [1, 9] | Average % Mortality after 30 min [1, 11] | Average % Mortality after 60 min [1, 9] | Average % Mortality after 60 min [1, 11] | Average % Mortality after 2 hr [1, 12] | Average % Mortality after 2 hr [1, 13] | Average % Mortality after 3 hr [1, 11] | Average % Knockdown & Mortality after 60 min [2, 15]
47%: Average % Mortality after 4 hr [1, 14]
100%: Average % Mortality after 24 hr [1, 9] | Average % Mortality after 24 hr [1, 11] | Average % Knockdown & Mortality after 24 hr [2, 15]

O=[N+]([O-])NC1=NCCN1Cc1ccc(Cl)nc1 [imidacloprid]
3%: Average % Knockdown & Mortality after 3 hr [1, 17] | Average % Knockdown & Mortality after 7 hr [1, 17]
10%: % KD and Mortality 2 h [3, 25]
80%: % KD and Mortality 2 h [4, 25]
100%: % KD and Mortality 24 h [3, 25] | % KD and Mortality 3 h [4, 25] | % KD and Mortality 4 h [4, 25] | % KD and Mortality 6 h [4, 25] | % KD and Mortality 24 h [4, 25]
0%: Average % Knockdown & Mortality after 2 hr ([1]; 2 hr, Table 22, imidacloprid/tritylchloride in acetone, continuous exposure) | Average % Knockdown & Mortality after 2 hr ([1]; 2 hr, Table 25, imidacloprid/dibutyl sebacate (DBS) in acetone) | Average % Knockdown & Mortality after 4 hr ([1]; 4 hr, Table 25, imidacloprid/dibutyl sebacate (DBS) in acetone) | Average % Knockdown & Mortality after 3 hr [1, 16] | Average % Knockdown & Mortality after 7 hr [1, 16] | Average % Knockdown & Mortality after 15 min [1, 18] | Average % Knockdown & Mortality after 15 min [1, 19] | Average % Knockdown & Mortality after 4 hr [1, 19] | Average % Knockdown & Mortality after 3 hr [1, 20] | Average % Knockdown & Mortality after 7 hr [1, 20] | Average % Knockdown & Mortality after 2 hr [1, 21] | Average % Knockdown & Mortality after 4 hr [1, 21] | Average % Knockdown & Mortality after 4 hr [1, 23] | Average % Knockdown & Mortality after 2 hr [1, 24] | % KD and Mortality 15′ [3, 25] | % KD and Mortality 30′ [3, 25] | % KD and Mortality 1 h [3, 25] | % KD and Mortality 15′ [4, 25] | % KD and Mortality 30′ [4, 25]
7%: Average % Knockdown & Mortality after 4 hr [1, 18] | Average % Knockdown & Mortality after 6 hr [1, 23] | Average % Knockdown & Mortality after 4 hr [1, 24]
17%: Average % Knockdown & Mortality after 18 hr [1, 22]
4%: Average % Knockdown & Mortality after 5 hr ([1]; 5 hr, Table 22, imidacloprid/tritylchloride in acetone, continuous exposure)
20%: % KD and Mortality 3 h [3, 25] | % KD and Mortality 4 h [3, 25] | % KD and Mortality 6 h [3, 25] | % KD and Mortality 1 h [4, 25]
14%: Average % Knockdown & Mortality after 2 hr [1, 22]

CC1(C)[C@H](C(=O)O[C@H](C#N)c2cccc(Oc3ccccc3)c2)[C@@H]1C=C(Br)Br [deltamethrin (1%)]
33%: Average % Mortality after 15 min [1, 26]
9%: Average % Mortality after 10 min ([1]; 10 min, Table 27, aqueous deltamethrin/adjuvant)
27%: Average % Mortality after 4 min ([2]; 4 min, Table 32, aqueous deltamethrin/adjuvant, glazed tile, Monheim strain)
82%: Average % Mortality after 30 min [1, 26]
67%: Average % Mortality after 20 min ([1]; 20 min, Table 27, aqueous deltamethrin/adjuvant)
100%: Average % Mortality after 8 min ([2]; 8 min, Table 32, aqueous deltamethrin/adjuvant, glazed tile, Monheim strain) | Average % Mortality after 12 min ([2]; 12 min, Table 32, aqueous deltamethrin/adjuvant, glazed tile, Monheim strain) | Average % Mortality after 20 min ([2]; 20 min, Table 32, aqueous deltamethrin/adjuvant, glazed tile, Monheim strain)

From patent publication US9028856B2, “Synergistic pesticide compositions” (priority 2008, dated 2015)
